Data reported in patent US20260256792A1, “TREATMENT OF CHRONIC SPONTANEOUS URTICARIA BY ADMINISTERING (R)-2-[3-[4-AMINO-3-(2-FLUORO-4-PHENOXY-PHENYL)PYRAZOLO[3,4-D]PYRIMIDIN-1-YL]PIPERIDINE-1-CARBONYL]-4-METHYL-4-[4-(OXETAN-3-YL)PIPERAZIN-1-YL]PENT-2-ENENITRILE” (priority 2023, published 2026).

System: moderate-to-severe chronic spontaneous urticaria (CSU)
Assay: Phase 2 CSU study: urticaria activity score over 7 days (UAS7)
Type: in vivo, human
Design: key to UAS7 Median / UAS7 Change from baseline Median / UAS7 change from baseline, Q1 / UAS7 change from baseline, Q3 / UAS7 change from baseline, Max / UAS7 Change from baseline LS Mean (SE): UAS7 points; daily UAS score ranges 0–6 points/day, over 7 days
Conditions: for UAS7 change from baseline at Week 12, LS Mean (SE): ANCOVA; for LS mean change in UAS7 from baseline to Week 12 (see Table 18): sentence on reductions following one week of treatment; for UAS7 Change from baseline Mean (SD) / UAS7 Change from baseline Median / UAS7 Percent change from baseline Mean (SD) / UAS7 Percent change from baseline Median / UAS7 change from baseline, Max / UAS7 change from baseline, Min / UAS7 change from baseline, Q1 / UAS7 change from baseline, Q3 / UAS7 percent change from baseline, Max / UAS7 percent change from baseline, Min / UAS7 percent change from baseline, Q1 / UAS7 percent change from baseline, Q3: double-blind period, last week block of Table 17 (week heading not shown); for participants with UAS7 of 0 / participants with UAS7 of ≤6: Week 12, omalizumab-naïve; for UAS7 Mean (SD) / UAS7 Median: End of Study; for UAS7 % Change difference for rilzabrutinib vs. placebo LS Mean (95% CI) / UAS7 % Change from baseline LS Mean (SE) / UAS7 Change difference for rilzabrutinib vs. placebo LS Mean (95% CI) / UAS7 Change from baseline LS Mean (SE): ITT Population
Source text: The study comprises a 12 week, randomized, double-blind, placebo-controlled, multi-center, dose-ranging efficacy and safety phase, followed by a 40 week open label extension (OLE) phase (see FIG. 1). The study consists of three phases and an optional OLE phase. […] Clinically, CSU is characterized by the spontaneous and recurrent appearance of pruritic hives. The proposed primary endpoints were the UAS7 at Week 12 in EU and EU reference countries and the ISS7 in the US. Regardless of where a participant was from, all assessments were the same. The UAS7 score is a composite score containing both the HSS7 and the ISS7. This allowed a global assessment of the two key components of urticaria: hives and itch. […] The UAS is a validated PRO measure. […] The daily UAS scores range from 0 to 6 point/day. […] Patients were to complete the UAS using the e-diary. […] The following secondary endpoints were to be analyzed using the same approach as for the primary endpoint: • Change from baseline in UAS7 at Week 4 • Change from baseline in UAS7 at Week 12 (for US and US reference countries) • Change from baseline in ISS7 at Week 12 (except US and US reference countries) • Change from baseline in HSS7 at Week 12 The following responder secondary endpoints were to be analyzed using the Cochran-Mantel-Haenszel test adjusted by region: • Proportion of participants with UAS7<6 at Week 12 • Proportion of participants with UAS7=0 at Week 12 Participants who received selected prohibited medications and/or rescue medications were to be considered as non-responders for time points after the medication usage. For other participants, all available data including those collected during the off-treatment period were to be used to determine the responder/non-responder status. Missing data were to be considered as non-responders.

[1] = 400 mg BID, Omalizumab-Naïve Population (N = 35), n observed/imputed 5 (3/2)
[2] = 400 mg BID, omalizumab-naïve population
[3] = 400 mg BID, omalizumab-naïve population with outlier removed
[4] = 400 mg QPM, Omalizumab-Naïve Population (N = 37), n observed/imputed 7 (3/4)
[5] = 400 mg QPM, omalizumab-naïve population
[6] = 400 mg QPM, omalizumab-naïve population with outlier removed
[7] = 400 mg TID, Omalizumab-Naïve Population (N = 35), n observed/imputed 5 (3/2)
[8] = 400 mg TID, Patients with Prior Omalizumab Use, Including Omalizumab-Incomplete Responders (N = 6), n observed/imputed 2 (0/2)
[9] = 400 mg TID, omalizumab-naïve population
[10] = 400 mg TID, omalizumab-naïve population with outlier removed
[11] = 400 mg TID, Prior Omalizumab Use

## CC(C)(C=C(C#N)C(=O)N1CCC[C@@H](n2nc(-c3ccc(Oc4ccccc4)cc3F)c3c(N)ncnc32)C1)N1CCN(C2COC2)CC1 [rilzabrutinib, (R)-2-[3-[4-amino-3-(2-fluoro-4-phenoxy-phenyl)pyrazolo[3,4-d]pyrimidin-1-yl]piperidine-1-carbonyl]-4-methyl-4-[4-(oxetan-3-yl)piperazin-1-yl]pent-2-enenitrile]
400 mg BID
  improvement compared to placebo across all endpoints: positive improvements across all endpoints
  participants with UAS7 of 0: 14.3%
  participants with UAS7 of ≤6: 20.0%
400 mg BID, ITT population
  UAS7 at Week 12, Mean (SD): 14.70 (14.29)
  UAS7 at Week 12, Median: 12.00
  UAS7 change from baseline at Week 12, LS Mean Diff vs. placebo (95% CI): −3.62 (−8.87, 1.63)
  UAS7 change from baseline at Week 12, Mean (SD): −16.02 (13.29) ^
  UAS7 change from baseline at Week 12, Median: −13.50
  UAS7 change from baseline at Week 12, LS Mean (SE): −14.82 (1.98)
  LS mean change in UAS7 from baseline to Week 12 (see Table 18): −10.01
[1]
  UAS7 Change from baseline Mean (SD): −14.40 (13.79)
  UAS7 Change from baseline Median: −13.00
  UAS7 Percent change from baseline Mean (SD): −51.30 (48.04) %
  UAS7 Percent change from baseline Median: −48.15%
  UAS7 change from baseline, Max: 0.0
  UAS7 change from baseline, Min: −29.0
  UAS7 change from baseline, Q1: −28.00
  UAS7 change from baseline, Q3: −2.00
  UAS7 percent change from baseline, Max: 0.0%
  UAS7 percent change from baseline, Min: −100.0%
  UAS7 percent change from baseline, Q1: −100.00%
  UAS7 percent change from baseline, Q3: −8.33%
[2]
  LS mean reduction in UAS7 from baseline to Week 12 (see Table 19): −9.79
  UAS7 at Week 12, Mean (SD): 15.61 (13.91)
  UAS7 at Week 12, Median: 14.00
  UAS7 change from baseline at Week 12, LS Mean Diff vs. placebo (95% CI): −4.09 (−9.59, 1.40)
  UAS7 change from baseline at Week 12, Mean (SD): −14.49 (12.08) ^
  UAS7 change from baseline at Week 12, Median: −12.80
  UAS7 change from baseline at Week 12, LS Mean (SE): −14.24 (2.06)
[3]
  UAS7 at Week 12, Mean (SD): 15.61 (13.91)
  UAS7 at Week 12, Median: 14.00
  UAS7 change from baseline at Week 12, LS Mean Diff vs. placebo (95% CI): −4.29 (−9.74, 1.16)
  UAS7 change from baseline at Week 12, Mean (SD): −14.49 (12.08) ^
  UAS7 change from baseline at Week 12, Median: −12.80
  UAS7 change from baseline at Week 12, LS Mean (SE): −14.30 (2.06)
400 mg QPM
  difference to placebo across endpoints: no difference
400 mg QPM, ITT population
  UAS7 at Week 12, Mean (SD): 21.80 (10.94)
  UAS7 at Week 12, Median: 22.40
  UAS7 change from baseline at Week 12, LS Mean Diff vs. placebo (95% CI): 0.97 (−4.40, 6.34)
  UAS7 change from baseline at Week 12, Mean (SD): −11.04 (9.56)
  UAS7 change from baseline at Week 12, Median: −9.40
  UAS7 change from baseline at Week 12, LS Mean (SE): −10.22 (2.01)
[4]
  UAS7 Change from baseline Mean (SD): −21.44 (16.26)
  UAS7 Change from baseline Median: −28.00
  UAS7 Percent change from baseline Mean (SD): −66.12 (46.34) %
  UAS7 Percent change from baseline Median: −86.67%
  UAS7 change from baseline, Max: 0.3
  UAS7 change from baseline, Min: −38.0
  UAS7 change from baseline, Q1: −36.40
  UAS7 change from baseline, Q3: 0.00
  UAS7 percent change from baseline, Max: 1.1%
  UAS7 percent change from baseline, Min: −100.0%
  UAS7 percent change from baseline, Q1: −100.00%
  UAS7 percent change from baseline, Q3: 0.00%
[5]
  UAS7 at Week 12, Median: 22.87
  UAS7 change from baseline at Week 12, LS Mean Diff vs. placebo (95% CI): 0.40 (−5.08, 5.89)
  UAS7 change from baseline at Week 12, Mean (SD): −10.57 (9.36)
  UAS7 change from baseline at Week 12, Median: −8.70
  UAS7 change from baseline at Week 12, LS Mean (SE): −9.74 (2.00) ^
[6]
  UAS7 at Week 12, Median: 22.87
  UAS7 change from baseline at Week 12, LS Mean Diff vs. placebo (95% CI): 0.08 (−5.29, 5.46)
  UAS7 change from baseline at Week 12, Mean (SD): −10.57 (9.36)
  UAS7 change from baseline at Week 12, Median: −8.70
  UAS7 change from baseline at Week 12, LS Mean (SE): −9.93 (1.96) ^
400 mg TID arm
  patients with improvement in the weekly UAS7: all patients except for one showed improvement
400 mg TID, ITT population
  UAS7 at Week 12, Median: 9.00
  UAS7 change from baseline at Week 12, LS Mean Diff vs. placebo (95% CI): −6.76 (−12.01, −1.51)
  UAS7 change from baseline at Week 12, Mean (SD): −20.30 (12.41) ^
  UAS7 change from baseline at Week 12, Median: −20.33
  UAS7 change from baseline at Week 12, LS Mean (SE): −17.95
  LS mean change in UAS7 from baseline to Week 12 (see Table 18): −12.72
400 mg TID, ITT population, listed as Rilzabrutinib
  UAS7 change from baseline at Week 12, LS Mean (SE): −17.95 (1.95)
400 mg TID, ITT population, belongs to LS mean change −12.72
  decrease from baseline in UAS7: 40.18%
[7]
  UAS7 Change from baseline Mean (SD): −11.40 (6.62)
  UAS7 Change from baseline Median: −14.00
  UAS7 Percent change from baseline Mean (SD): −38.24 (25.31) %
  UAS7 Percent change from baseline Median: −45.95%
  UAS7 change from baseline, Max: 0.0
  UAS7 change from baseline, Min: −17.0
  UAS7 change from baseline, Q1: −14.00
  UAS7 change from baseline, Q3: −12.00
  UAS7 percent change from baseline, Max: 0.0%
  UAS7 percent change from baseline, Q1: −50.00%
  UAS7 percent change from baseline, Q3: −28.57%
[8]
  UAS7 Change from baseline Mean (SD): −3.50 (4.95)
  UAS7 Change from baseline Median: −3.50
  UAS7 Percent change from baseline Mean (SD): −21.88 (30.94) %
  UAS7 Percent change from baseline Median: −21.88%
  UAS7 change from baseline, Max: 0.0
  UAS7 change from baseline, Min: −7.0
  UAS7 change from baseline, Q1: −7.00
  UAS7 change from baseline, Q3: 0.00
  UAS7 percent change from baseline, Max: 0.0%
  UAS7 percent change from baseline, Min: −43.8%
  UAS7 percent change from baseline, Q1: −43.75%
  UAS7 percent change from baseline, Q3: 0.00%
400 mg TID
  participants with UAS7 of 0: 20.0%
  participants with UAS7 of ≤6: 34.3%
[9]
  LS mean reduction in UAS7 from baseline to Week 12 (see Table 19): −11.44
  UAS7 at Week 12, Mean (SD): 11.00 (9.90)
  UAS7 at Week 12, Median: 12.25
  UAS7 change from baseline at Week 12, LS Mean Diff vs. placebo (95% CI): −6.75 (−12.23, −1.26)
  UAS7 change from baseline at Week 12, Mean (SD): −19.04 (11.40) ^
  UAS7 change from baseline at Week 12, Median: −18.92
  UAS7 change from baseline at Week 12, LS Mean (SE): −16.89
[10]
  UAS7 at Week 12, Mean (SD): 11.00 (9.90)
  UAS7 at Week 12, Median: 12.25
  UAS7 change from baseline at Week 12, LS Mean Diff vs. placebo (95% CI): −7.50 (−13.02, −1.97)
  UAS7 change from baseline at Week 12, Mean (SD): −19.04 (11.40) ^
  UAS7 change from baseline at Week 12, Median: −18.92
  UAS7 change from baseline at Week 12, LS Mean (SE): −17.50
400 mg TID, omalizumab-naïve population with outlier removed, listed as Rilzabrutinib
  UAS7 change from baseline at Week 12, LS Mean (SE): −17.50 (2.06)
400 mg TID, omalizumab-naïve population, listed as Rilzabrutinib
  UAS7 change from baseline at Week 12, LS Mean (SE): −16.89 (2.04)
400 mg BID, Omalizumab-Naïve
  UAS7 Mean (SD): 15.60 (17.52)
  UAS7 Median: 14.00
400 mg QPM, Omalizumab-Naïve
  UAS7 Mean (SD): 11.70 (16.82)
  UAS7 Median: 5.00
400 mg TID, Omalizumab-Naïve
  UAS7 Mean (SD): 21.40 (11.74)
  UAS7 Median: 20.00
[11]
  UAS7 Mean (SD): 15.58 (9.31)
  UAS7 Median: 15.58
400 mg BID, Week 2
  UAS7 % Change difference for rilzabrutinib vs. placebo LS Mean (95% CI): −17.26%
  UAS7 % Change from baseline LS Mean (SE): −36.13%
  UAS7 Change difference for rilzabrutinib vs. placebo LS Mean (95% CI): −4.49
  UAS7 Change from baseline LS Mean (SE): −10.82
400 mg QPM, Week 3
  UAS7 % Change difference for rilzabrutinib vs. placebo LS Mean (95% CI): −7.92%
  UAS7 % Change from baseline LS Mean (SE): −29.55%
  UAS7 Change difference for rilzabrutinib vs. placebo LS Mean (95% CI): −1.91
  UAS7 Change from baseline LS Mean (SE): −9.50
400 mg QPM, Week 5
  UAS7 % Change difference for rilzabrutinib vs. placebo LS Mean (95% CI): −0.72%
  UAS7 % Change from baseline LS Mean (SE): −32.52%
  UAS7 Change difference for rilzabrutinib vs. placebo LS Mean (95% CI): −0.26
